Data taken from ChEMBL document CHEMBL6103619, “Discovery of a Novel CRBN-Recruiting cGAS PROTAC Degrader for the Treatment of Ulcerative Colitis” (J Med Chem, 2025).
Active and inactive are the calls of the source. The calls are words filed in the database; no cut-off is given here.

What was measured:
[1] = Inhibition of dsDNA-induced cGAS signaling pathway in human THP1-Lucia ISG cells preincubated with compound for 24 hrs followed by HT-DNA addition and measured after 24 hrs by QUANTI-Luc luciferase reagent based assay; format: cell-based
[2] = Inhibition of dsDNA-induced cGAS signaling pathway in mouse RAW-Lucia ISG cells preincubated with compound for 24 hrs followed by HT-DNA addition and measured after 24 hrs by QUANTI-Luc luciferase reagent based assay; format: cell-based
[3] = tested on: THP-1; assay: Induction of cGAS degradation in human THP-1 cells at 10 uM preincubated with compound for 40 hrs followed by HT-DNA stimulation and measured after 8 hrs by Western blot analysis relative to control; format: cell-based; details: time 48.0 hrs
[4] = target: Protein cereblon/Cyclic GMP-AMP synthase (Homo sapiens, UniProt Q96SW2+Q8N884); assay: PROTAC activity at CRBN/cGAS in human THP-1 cells assessed as induction of cGAS degradation at 10 uM incubated for 48 hrs by Western blot analysis; format: cell-based
Chain of Protein cereblon/Cyclic GMP-AMP synthase (Q8N884 whole entry, looked up): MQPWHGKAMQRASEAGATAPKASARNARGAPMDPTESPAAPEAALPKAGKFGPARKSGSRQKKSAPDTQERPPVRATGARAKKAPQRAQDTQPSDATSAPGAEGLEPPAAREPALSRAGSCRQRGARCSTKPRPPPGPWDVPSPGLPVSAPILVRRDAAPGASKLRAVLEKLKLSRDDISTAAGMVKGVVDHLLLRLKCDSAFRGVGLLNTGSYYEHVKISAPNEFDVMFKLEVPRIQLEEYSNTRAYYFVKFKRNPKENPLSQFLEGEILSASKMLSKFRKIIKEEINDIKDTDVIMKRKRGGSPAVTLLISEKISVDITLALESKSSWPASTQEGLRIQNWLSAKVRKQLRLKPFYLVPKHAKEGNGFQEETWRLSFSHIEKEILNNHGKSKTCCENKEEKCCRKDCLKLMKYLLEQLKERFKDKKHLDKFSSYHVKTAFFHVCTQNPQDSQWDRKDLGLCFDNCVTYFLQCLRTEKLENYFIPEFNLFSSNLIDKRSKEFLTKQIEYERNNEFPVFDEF
Chain of Protein cereblon/Cyclic GMP-AMP synthase (Q96SW2 whole entry, looked up): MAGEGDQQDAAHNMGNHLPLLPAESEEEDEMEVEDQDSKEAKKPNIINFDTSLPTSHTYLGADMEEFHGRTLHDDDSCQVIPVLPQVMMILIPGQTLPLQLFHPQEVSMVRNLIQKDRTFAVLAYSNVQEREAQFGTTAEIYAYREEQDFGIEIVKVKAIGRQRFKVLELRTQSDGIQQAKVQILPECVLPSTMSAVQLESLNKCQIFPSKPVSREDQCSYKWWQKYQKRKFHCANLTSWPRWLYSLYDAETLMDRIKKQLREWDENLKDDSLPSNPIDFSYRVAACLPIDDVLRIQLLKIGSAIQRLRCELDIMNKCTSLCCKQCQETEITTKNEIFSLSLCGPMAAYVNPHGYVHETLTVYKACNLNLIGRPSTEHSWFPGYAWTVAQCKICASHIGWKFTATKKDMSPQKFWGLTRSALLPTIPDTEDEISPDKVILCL

[5] = tested on: THP-1; assay: Cytotoxicity against human THP-1 cells assessed as reduction in cell viability at >30 uM incubated for 48 hrs by CCK8 assay; format: toxicity, cell-based; details: thp-1, 48 h
[6] = target: T1, Protein cereblon/Cyclic GMP-AMP synthase (Mus musculus) (UniProt Q8C6L5+Q8C7D2); assay: (§1) In vivo inhibition of cGAS signaling pathway in DSS-induced ulcerative colitis C57BL/6 mouse model assessed as reduction in cGAS protein level in colon at 50 mg/kg/day, ip preadministered with DSS for 7 days followed by replacement with ultrapure water for 3 days with subsequent compound administration starting from day 4 to 10 and measured on day 11 by Western blot analysis; format: functional, organism-based; details: time 8.0 day
T1 sequence (Q8C6L5 whole entry, looked up): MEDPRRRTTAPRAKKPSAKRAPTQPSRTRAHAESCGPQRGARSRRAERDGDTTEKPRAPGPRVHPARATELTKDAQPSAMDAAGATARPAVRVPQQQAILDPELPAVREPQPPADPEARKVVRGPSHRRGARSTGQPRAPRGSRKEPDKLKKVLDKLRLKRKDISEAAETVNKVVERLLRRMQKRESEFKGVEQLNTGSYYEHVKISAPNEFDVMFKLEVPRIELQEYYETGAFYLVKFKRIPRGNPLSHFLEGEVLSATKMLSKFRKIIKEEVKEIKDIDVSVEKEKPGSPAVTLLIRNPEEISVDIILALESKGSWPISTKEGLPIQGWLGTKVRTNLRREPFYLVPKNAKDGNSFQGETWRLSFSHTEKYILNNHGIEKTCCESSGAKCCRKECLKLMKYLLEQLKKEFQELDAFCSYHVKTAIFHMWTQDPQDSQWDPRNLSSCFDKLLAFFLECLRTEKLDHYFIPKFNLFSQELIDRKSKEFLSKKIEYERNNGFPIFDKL
T1 sequence (Q8C7D2 whole entry, looked up): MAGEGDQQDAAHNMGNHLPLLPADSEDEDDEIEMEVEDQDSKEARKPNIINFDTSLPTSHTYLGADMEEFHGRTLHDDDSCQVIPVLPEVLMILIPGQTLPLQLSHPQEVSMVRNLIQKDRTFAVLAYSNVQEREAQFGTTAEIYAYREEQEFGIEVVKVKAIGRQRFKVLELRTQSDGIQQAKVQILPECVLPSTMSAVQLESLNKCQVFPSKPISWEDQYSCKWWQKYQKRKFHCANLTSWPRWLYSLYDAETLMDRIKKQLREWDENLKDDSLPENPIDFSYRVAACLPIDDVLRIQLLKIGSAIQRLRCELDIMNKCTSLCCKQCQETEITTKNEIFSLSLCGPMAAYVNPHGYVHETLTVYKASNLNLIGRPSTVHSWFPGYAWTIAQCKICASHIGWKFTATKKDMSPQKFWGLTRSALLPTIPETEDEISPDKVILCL

[7] = tested on: Mus musculus; assay: as §1, with “Anti-inflammatory activity” for “In vivo inhibition of cGAS signaling pathway”, “NET generation by measuring reduction in citH3” for “cGAS protein”; format: functional, organism-based; details: time 8.0 day
[8] = target: T1, Protein cereblon/Cyclic GMP-AMP synthase (Mus musculus); assay: as §1, with “200” for “50”, “po” for “ip”; format: functional, organism-based; details: time 8.0 day
[9] = tested on: Mus musculus; assay: as §1, with “Anti-inflammatory activity” for “In vivo inhibition of cGAS signaling pathway”, “NET generation by measuring reduction in citH3” for “cGAS protein”, “200” for “50”, “po” for “ip”; format: functional, organism-based; details: time 8.0 day

IC50 [1]	IC50 [2]	Activity [4]	SMILES	Activity [3]	Activity [5]	inhibition [6]	Activity [7]	inhibition [8]	Activity [9]
4.1 µM	13.1 µM	inactive	Cn1ccc(-c2cc(Cl)c(Cl)c3[nH]c4c(c23)CN(C(=O)CO)CC4)n1	8.3%	Toxic	Active; Minor Changes Observed	Active	–	–
–	–	–	Nc1ccc(O)c(C(=O)O)c1	–	–	–	–	Active; Minor Changes Observed	Active
